Assay results published in ChEMBL document CHEMBL3352415, “Synthesis and biological evaluation of novel thiadiazole amides as potent Cdc25B and PTP1B inhibitors” (Bioorg Med Chem Lett, 2014).

How the values were obtained:
[1] = molecular target: T1, M-phase inducer phosphatase 2 (Homo sapiens) (UniProt P30305); assay: Inhibition of Cdc25B (unknown origin) at 5 ug/ml
T1 sequence (whole entry): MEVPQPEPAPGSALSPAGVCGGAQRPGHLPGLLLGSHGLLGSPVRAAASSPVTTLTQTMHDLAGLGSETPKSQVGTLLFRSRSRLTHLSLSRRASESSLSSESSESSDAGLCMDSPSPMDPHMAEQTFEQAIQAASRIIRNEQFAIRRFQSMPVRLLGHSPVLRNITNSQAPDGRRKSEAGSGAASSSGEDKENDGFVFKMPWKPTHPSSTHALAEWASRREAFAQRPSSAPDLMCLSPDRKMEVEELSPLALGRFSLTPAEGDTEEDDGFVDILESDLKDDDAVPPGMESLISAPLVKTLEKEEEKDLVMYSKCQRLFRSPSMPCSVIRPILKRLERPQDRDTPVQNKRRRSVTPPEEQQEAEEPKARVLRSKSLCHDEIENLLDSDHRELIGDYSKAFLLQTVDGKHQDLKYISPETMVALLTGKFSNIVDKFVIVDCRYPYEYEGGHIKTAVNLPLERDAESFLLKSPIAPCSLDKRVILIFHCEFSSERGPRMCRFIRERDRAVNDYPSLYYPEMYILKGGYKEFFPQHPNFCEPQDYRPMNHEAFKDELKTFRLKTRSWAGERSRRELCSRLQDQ

[2] = molecular target: T2, Tyrosine-protein phosphatase non-receptor type 1 (Homo sapiens) (UniProt P18031); assay: Inhibition of PTP1B (unknown origin) at 5 ug/ml
T2 sequence (whole entry): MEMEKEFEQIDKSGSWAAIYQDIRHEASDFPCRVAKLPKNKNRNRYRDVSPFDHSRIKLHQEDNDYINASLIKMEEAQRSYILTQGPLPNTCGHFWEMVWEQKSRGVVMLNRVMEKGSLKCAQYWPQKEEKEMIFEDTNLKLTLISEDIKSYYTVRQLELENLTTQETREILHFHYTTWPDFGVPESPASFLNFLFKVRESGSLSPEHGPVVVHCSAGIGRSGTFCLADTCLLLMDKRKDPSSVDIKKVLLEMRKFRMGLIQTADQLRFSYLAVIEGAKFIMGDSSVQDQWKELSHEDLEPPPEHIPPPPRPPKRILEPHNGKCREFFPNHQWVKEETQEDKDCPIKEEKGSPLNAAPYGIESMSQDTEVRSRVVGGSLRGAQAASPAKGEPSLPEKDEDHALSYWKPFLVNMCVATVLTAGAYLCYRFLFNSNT

[3] = molecular target: T3, Tyrosine-protein phosphatase non-receptor type 1 (Homo sapiens, UniProt P18031); assay: Inhibition of PTP1B (unknown origin)
T3 sequence (P18031 whole entry): T2 sequence (whole entry)

[4] = molecular target: Tyrosine-protein phosphatase non-receptor type 6 (Homo sapiens, UniProt P29350); assay: Inhibition of SHP1 (unknown origin)
[5] = molecular target: T4, Tyrosine-protein phosphatase non-receptor type 11 (Homo sapiens, UniProt Q06124); assay: Inhibition of SHP2 (unknown origin)
T4 sequence (Q06124 whole entry): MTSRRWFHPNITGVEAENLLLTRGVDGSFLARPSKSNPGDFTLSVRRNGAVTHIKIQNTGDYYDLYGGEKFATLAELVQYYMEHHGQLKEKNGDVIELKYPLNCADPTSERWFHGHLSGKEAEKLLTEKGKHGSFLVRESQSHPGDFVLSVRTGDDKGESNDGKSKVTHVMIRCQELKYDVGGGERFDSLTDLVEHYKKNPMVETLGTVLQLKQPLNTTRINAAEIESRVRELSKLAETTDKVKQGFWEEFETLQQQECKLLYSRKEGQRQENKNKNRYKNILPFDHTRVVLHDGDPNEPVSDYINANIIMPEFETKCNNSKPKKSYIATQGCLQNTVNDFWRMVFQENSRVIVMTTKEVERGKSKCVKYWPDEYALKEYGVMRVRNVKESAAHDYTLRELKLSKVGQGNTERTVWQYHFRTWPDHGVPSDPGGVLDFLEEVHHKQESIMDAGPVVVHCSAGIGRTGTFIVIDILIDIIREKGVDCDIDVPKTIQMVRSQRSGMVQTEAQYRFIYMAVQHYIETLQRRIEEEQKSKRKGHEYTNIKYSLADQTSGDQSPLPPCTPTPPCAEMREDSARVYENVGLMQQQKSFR

[6] = molecular target: Receptor-type tyrosine-protein phosphatase F (Homo sapiens, UniProt P10586); assay: Inhibition of LAR (unknown origin)
[7] = molecular target: T5, Tyrosine-protein phosphatase non-receptor type 2 (Homo sapiens, UniProt P17706); assay: Inhibition of TCPTP (unknown origin)
T5 sequence (P17706 whole entry): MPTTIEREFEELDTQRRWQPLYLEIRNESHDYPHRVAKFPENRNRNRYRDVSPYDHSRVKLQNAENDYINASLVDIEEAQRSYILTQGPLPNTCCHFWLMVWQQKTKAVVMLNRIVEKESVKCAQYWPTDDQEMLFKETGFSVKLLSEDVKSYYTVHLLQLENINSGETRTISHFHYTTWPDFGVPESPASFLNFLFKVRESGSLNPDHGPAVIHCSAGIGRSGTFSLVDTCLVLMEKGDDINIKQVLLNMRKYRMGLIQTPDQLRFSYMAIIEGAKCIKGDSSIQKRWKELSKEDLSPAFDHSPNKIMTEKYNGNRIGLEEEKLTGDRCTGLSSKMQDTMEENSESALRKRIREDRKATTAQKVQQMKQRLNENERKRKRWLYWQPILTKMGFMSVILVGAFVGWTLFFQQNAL

[8] = molecular target: T6, M-phase inducer phosphatase 2 (Homo sapiens, UniProt P30305); assay: Inhibition of Cdc25B (unknown origin)
T6 sequence (P30305 whole entry): T1 sequence (whole entry)

Sequence of Tyrosine-protein phosphatase non-receptor type 6 (P29350 whole entry): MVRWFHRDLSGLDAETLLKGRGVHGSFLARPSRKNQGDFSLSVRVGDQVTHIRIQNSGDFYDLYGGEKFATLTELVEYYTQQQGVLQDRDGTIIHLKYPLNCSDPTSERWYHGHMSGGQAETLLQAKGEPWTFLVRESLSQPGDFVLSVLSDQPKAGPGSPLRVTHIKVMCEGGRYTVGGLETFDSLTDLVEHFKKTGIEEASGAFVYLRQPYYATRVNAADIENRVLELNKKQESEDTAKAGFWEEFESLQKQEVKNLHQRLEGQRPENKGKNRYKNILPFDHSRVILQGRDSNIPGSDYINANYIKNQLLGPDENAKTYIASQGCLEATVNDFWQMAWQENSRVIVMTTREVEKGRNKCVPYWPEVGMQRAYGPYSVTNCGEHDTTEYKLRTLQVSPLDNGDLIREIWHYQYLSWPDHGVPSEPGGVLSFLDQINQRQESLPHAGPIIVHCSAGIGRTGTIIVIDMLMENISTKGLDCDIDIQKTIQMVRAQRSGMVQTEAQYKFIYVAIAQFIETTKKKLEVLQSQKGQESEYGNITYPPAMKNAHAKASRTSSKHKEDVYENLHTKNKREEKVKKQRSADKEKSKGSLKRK
Sequence of Receptor-type tyrosine-protein phosphatase F (P10586 whole entry): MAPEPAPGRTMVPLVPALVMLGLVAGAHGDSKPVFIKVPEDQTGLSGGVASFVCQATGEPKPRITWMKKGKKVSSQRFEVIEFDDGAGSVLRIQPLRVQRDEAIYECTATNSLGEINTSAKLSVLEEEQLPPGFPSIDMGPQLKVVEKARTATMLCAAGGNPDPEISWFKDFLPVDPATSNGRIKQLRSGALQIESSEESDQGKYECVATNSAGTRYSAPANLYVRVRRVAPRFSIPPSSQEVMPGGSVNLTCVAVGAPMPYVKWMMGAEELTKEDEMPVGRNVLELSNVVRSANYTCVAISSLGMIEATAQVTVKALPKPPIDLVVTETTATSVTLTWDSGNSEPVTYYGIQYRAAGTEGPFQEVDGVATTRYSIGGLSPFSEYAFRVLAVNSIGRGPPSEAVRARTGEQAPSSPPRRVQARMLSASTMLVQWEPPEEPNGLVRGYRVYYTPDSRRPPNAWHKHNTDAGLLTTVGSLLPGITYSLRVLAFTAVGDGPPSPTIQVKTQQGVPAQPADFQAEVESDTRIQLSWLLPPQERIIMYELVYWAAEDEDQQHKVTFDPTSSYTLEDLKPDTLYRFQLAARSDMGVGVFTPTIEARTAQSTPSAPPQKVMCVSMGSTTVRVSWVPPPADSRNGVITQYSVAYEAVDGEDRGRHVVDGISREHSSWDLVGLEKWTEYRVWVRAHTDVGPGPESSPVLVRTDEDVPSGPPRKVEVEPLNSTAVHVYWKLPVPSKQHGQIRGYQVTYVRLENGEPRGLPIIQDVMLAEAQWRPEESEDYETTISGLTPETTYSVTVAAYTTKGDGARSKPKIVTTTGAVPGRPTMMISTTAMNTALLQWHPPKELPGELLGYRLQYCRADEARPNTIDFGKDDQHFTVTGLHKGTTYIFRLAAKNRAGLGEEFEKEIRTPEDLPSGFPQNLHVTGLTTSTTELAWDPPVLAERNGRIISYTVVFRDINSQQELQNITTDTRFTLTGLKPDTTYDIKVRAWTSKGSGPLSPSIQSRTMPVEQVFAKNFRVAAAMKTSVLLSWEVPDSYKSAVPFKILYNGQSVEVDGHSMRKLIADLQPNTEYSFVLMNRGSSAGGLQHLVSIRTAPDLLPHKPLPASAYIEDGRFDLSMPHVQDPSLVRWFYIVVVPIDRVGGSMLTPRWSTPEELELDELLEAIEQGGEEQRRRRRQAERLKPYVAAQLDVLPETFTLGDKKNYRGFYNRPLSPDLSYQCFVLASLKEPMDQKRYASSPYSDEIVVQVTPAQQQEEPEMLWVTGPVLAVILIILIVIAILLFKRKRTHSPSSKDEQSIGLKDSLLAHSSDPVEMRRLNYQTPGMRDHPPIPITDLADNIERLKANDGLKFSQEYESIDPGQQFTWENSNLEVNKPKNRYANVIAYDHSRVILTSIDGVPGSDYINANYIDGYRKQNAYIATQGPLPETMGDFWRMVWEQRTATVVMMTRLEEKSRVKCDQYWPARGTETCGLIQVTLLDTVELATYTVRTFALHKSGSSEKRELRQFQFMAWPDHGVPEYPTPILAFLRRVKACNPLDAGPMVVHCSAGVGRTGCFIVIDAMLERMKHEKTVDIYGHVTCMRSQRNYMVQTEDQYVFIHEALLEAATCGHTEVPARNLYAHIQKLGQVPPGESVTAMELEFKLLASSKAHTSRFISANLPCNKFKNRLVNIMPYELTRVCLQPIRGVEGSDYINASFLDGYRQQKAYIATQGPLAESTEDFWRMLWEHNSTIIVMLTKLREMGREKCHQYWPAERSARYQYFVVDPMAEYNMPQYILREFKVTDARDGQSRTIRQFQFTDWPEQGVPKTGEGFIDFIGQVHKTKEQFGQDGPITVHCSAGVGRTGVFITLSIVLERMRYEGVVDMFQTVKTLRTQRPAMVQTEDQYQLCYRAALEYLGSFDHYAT

Molecule | inhibition [1] | inhibition [2] | IC50 [3] | IC50 [4] | IC50 [5] | IC50 [6] | IC50 [7] | IC50 [8]
O=C(Nc1nnc(-c2ccc(Oc3ccc([N+](=O)[O-])cc3)cc2)s1)c1ccccc1Cl | 46.4% | 63% | 13.8 µM | Not Active | Not Active | Not Active | Not Active | –
O=C(Nc1nnc(-c2ccc(Oc3ccc([N+](=O)[O-])cc3)cc2)s1)c1cccc(F)c1 | 81.7% | 37.1% | – | Not Active | Not Active | Not Active | Not Active | 10.5 µM
O=C(Nc1nnc(-c2ccc(Oc3ccc([N+](=O)[O-])cc3)cc2)s1)c1ccccc1[N+](=O)[O-] | 13% | 85% | 9.17 µM | Not Active | Not Active | Not Active | Not Active | –
SODIUM ORTHOVANAD | – | – | – | 15.9 µg/mL | 24.1 µg/mL | – | – | –
Cc1ccc(C(=O)Nc2nnc(-c3ccc(Oc4ccc([N+](=O)[O-])cc4)cc3)s2)cc1 | 25.8% | 68.4% | 19.1 µM | Not Active | Not Active | Not Active | Not Active | –
O=C(Nc1nnc(-c2ccc(Oc3ccc([N+](=O)[O-])cc3)cc2)s1)c1ccc(F)cc1 | 31.7% | 77.1% | 20 µM | Not Active | Not Active | Not Active | Not Active | –
O=C(Cc1ccccc1)Nc1nnc(-c2ccc(Oc3ccc([N+](=O)[O-])cc3)cc2)s1 | 43.6% | 54.9% | 12.6 µM | Not Active | Not Active | Not Active | Not Active | –
COc1cccc(C(=O)Nc2nnc(-c3ccc(Oc4ccc([N+](=O)[O-])cc4)cc3)s2)c1 | 2.52% | 32.1% | – | Not Active | Not Active | Not Active | Not Active | –
COc1ccccc1C(=O)Nc1nnc(-c2ccc(Oc3ccc([N+](=O)[O-])cc3)cc2)s1 | 26.1% | 84.8% | 13.1 µM | Not Active | Not Active | Not Active | Not Active | –

Second part, the molecule after the results:

inhibition [1] | inhibition [2] | IC50 [3] | IC50 [4] | IC50 [5] | IC50 [6] | IC50 [7] | IC50 [8] | Molecule
17.5% | 91.3% | 3.81 µM | Not Active | Not Active | Not Active | Not Active | – | COc1ccccc1C(=O)Nc1nnc(-c2ccc(Oc3ccc([N+](=O)[O-])cc3[N+](=O)[O-])cc2)s1
37% | 80.7% | 6.71 µM | Not Active | Not Active | Not Active | Not Active | – | O=C(Nc1nnc(-c2ccc(Oc3ccc([N+](=O)[O-])cc3[N+](=O)[O-])cc2)s1)c1cccc(Cl)c1
90.2% | 42.3% | – | Not Active | Not Active | Not Active | Not Active | 4.44 µM | O=C(Nc1nnc(-c2ccc(Oc3ccc([N+](=O)[O-])cc3[N+](=O)[O-])cc2)s1)c1ccc(Cl)cc1
28.9% | 92.9% | 7.6 µM | Not Active | Not Active | Not Active | Not Active | – | COc1ccc(C(=O)Nc2nnc(-c3ccc(Oc4ccc([N+](=O)[O-])cc4[N+](=O)[O-])cc3)s2)cc1
24.2% | 94.6% | 1.83 µM | Not Active | Not Active | Not Active | Not Active | – | O=C(Nc1nnc(-c2ccc(Oc3ccc([N+](=O)[O-])cc3)cc2)s1)c1cccc([N+](=O)[O-])c1
